In patent US9050354B2, “Therapeutic antisense oligonucleotide compositions for the treatment of inflammatory bowel disease” (Atlantic Pharmaceuticals (Holdings) Limited, priority 2004, dated 2015):
Oligonucleotides are written 5' to 3', each unit as a sugar letter and its base; * is a phosphorothioate linkage, no mark a phosphodiester; rarer units and linkages stand in square brackets, end groups in braces. Plain capitals give the bases only. d = 2'-deoxy (DNA)

Experiments:
[1] = enema, 10 to 12 hours post-administration; about two thirds N-acetyl metabolite; cited from earlier work
Crohn's disease = settings: intravenous, cited from earlier work
[2] = human, in vivo, iv
Protocol: This was a double-blind, placebo-controlled, randomized (3:1, drug: placebo) study. Four healthy male volunteers were enrolled in each of seven single dose (0.06, 0.12, 0.24, 0.5, 1.0, 1.5 and 2.0 mg/kg) and multiple dose groups (0.2, 0.5, 1.0 and 2.0 mg/kg every other day for four doses). Groups were studied in a rising-dose fashion, and multiple dosing commenced after the first five single groups had completed the trial. […] Subjects remained recumbent, with continuous ECG monitoring for four hours after the beginning of each infusion. Before and at intervals after each infusion, supine blood pressure and pulse, clotting screen including aPTT, thrombin time, prothrombin time, serum complement split products C3a and C5a, neutrophil count, urine microproteins, and standard laboratory safety screen (hematology, blood biochemistry and urinalysis) were measured.
Complement split products were measured by commercially available C3a and C5a assay kits (Amersham).
Drug analysis was performed by capillary gel electrophoresis (CGE) as described by Leeds et al. (Anal. Biochem., 235:36-43, 1996). A phosphorothioate standard oligonucleotide composed of 27 thymidine nucleotides (T27) was added to both plasma and urine as an internal standard. The linear range of concentrations of oligonucleotides detectable in plasma using this method was 10 nM to 20 μM (approximately 0.07 to 140 μg/ml).

[3] = tested on: mild to moderate ulcerative colitis; settings: 240 mg/day rectally for 28 days; placebo 50%; cited from earlier work
[4] = human, in vivo, sc
[5] = tested on: moderate to severe ulcerative colitis; assay: Subset analysis of patients with moderate to severe disease; type: in vivo, human; settings: moderate to severe subset (n=26)
Protocol: An analysis of a subset of the population (n=26) of the study with moderate to severe disease was performed. Moderate to severe disease was defined as patients having the following scores using the DAI criteria: baseline stool frequency ≧2, rectal bleeding ≧2, endoscopy ≧2, and investigator's assessment ≧1.

[6] = tested on: mild to moderate active distal ulcerative colitis
Protocol: The safety and efficacy of four different dosing regimens of ISIS 2302 enema was assessed for the treatment of ulcerative colitis were analyzed in a placebo-controlled, double-blinded Phase 2 study.
Patients were equally randomized into one of five study arms.
240 mg ISIS 2302 nightly for six weeks.
240 mg ISIS 2302 for 10 consecutive nights followed by 240 mg ISIS 2302 every other night for remaining 32 nights.
240 mg of ISIS 2302 every other night for six weeks.
120 mg of ISIS 2302 for 10 consecutive nights followed by 120 mg of ISIS 2302 every other night for the remaining 32 nights.
Placebo enema nightly for six weeks.
All patients received either a placebo enema or ISIS 2302 enema nightly for six weeks. Patients in arms 2 and 4 received placebo enemas on alternate nights when ISIS 2302 was administered on alternate days.

[7] = tested on: chronic, unremitting pouchitis; settings: HPMC enema 240 mg nightly for 6 weeks, twelve patients (p=0.001); cited from earlier work
[8] = in vivo
Protocol: A population of 15 patients with mild to moderate active left sided ulcerative colitis (DIA 3-10) with mucosal friability were studied.
Patients were given 240 mg of ISIS 2302 enema nightly for six weeks. Endoscopic mucosal biopsy samples were taken at baseline and at the end of therapy. Intensive 24-hour plasma pharmacokinetic (PK) sampling was conducted on all patients after the first and last enema dose for quantitative drug analysis. End of treatment colonic biopsy samples were collected for local quantitative PK evaluation from the descending colon.
PK and clinical data from the first 12 patients were analyzed.

[9] = tested on: mild to moderate active left sided ulcerative colitis; assay: Open label study CS-28: pharmacological activity of ISIS 2302 enema; type: in vivo, human; settings: 240 mg enema nightly for six weeks
Source text: All patients entering the study had moderate to severe mucosal disease at baseline (modified Mayo score, endoscopic appearance component of DAI, of 2 or greater at baseline). […] This was substantially higher than expected.

Compound	plasma levels [1] [ng/mL]	efficacy in Phase II studies (Crohn's disease; some subsets of patients)	efficacy on clinical remission and disease activity index scores (Crohn's disease; two Phase III trials, moderate to severe Crohn's disease)	n-1, n-2 and n-3 metabolites as share of total oligonucleotide in plasma [2] [%]	patients requiring additional surgical or medical intervention over baseline during six months [3]	plasma bioavailability [4]	change in DAI vs baseline and placebo ([5]; every other night dosing, through week 6)	change in DAI vs baseline and placebo ([5]; nightly dosing, through week 18)	subjects remaining in remission at week 30 of those in remission after 6 weeks ([6]; 240 mg group, placebo 4 of 9 (p=0.12))	median duration of response ([6]; 240 mg group, placebo <3 months) [months]	response rate vs placebo ([6]; 240 mg nightly, weeks 18 and 30 (p=0.04 and 0.03))	stool frequency and rectal bleeding (components of DAI) ([6]; ISIS 2302 enema treatment)	response vs placebo ([6]; the 3 lower dose groups)	primary endpoint of reduction of PDAI at week 6 [7]	Maximum plasma concentrations (Cmax) ([8]; human, 240 mg) [ng/mL]	Mean AUC ([8]; human, 240 mg) [µg·h/mL]	systemically available share of the administered dose [8]	patients with DAI significantly improved from baseline to week 6 [9]	patients with mucosal healing and resolution of friability (modified Mayo score of 0 or 1) ([9]; at completion of the study)
Nc1ccc(O)c(C(=O)O)c1 [mesalamine]	2000	–	–	–	–	–	–	–	–	–	–	–	–	–	–	–	–	–	–
ISIS 2302: 20-base phosphorothioate oligodeoxynucleotide 5′-GCCCAAGCTGGCATCCGTCA-3′ hybridizing to the 3′-untranslated region of human ICAM-1 mRNA (antisense dG*dC*dC*dC*dA*dA*dG*dC*dT*dG*dG*dC*dA*dT*dC*dC*dG*dT*dC*dA)	–	suggested efficacy	ineffective	20	None	about 50%	significant (p≦0.05) decrease in DAI	significant (p≦0.05) decrease in DAI	10 of 13	≥ 6	significantly better response rate than placebo	durable reduction	failed to demonstrate statistical improvement over placebo	reached	2.2 to 38	0.124	less than 1%	9 of 12	Seven of 12
